Results published in patent US8889714B2, “3,4-substituted piperidine derivatives as renin inhibitors” (Actelion Pharmaceuticals Ltd., priority 2008, dated 2014).
Like-named read-outs stand apart in the source and are kept apart here.

Experiments:
Human recombinant renin = target: T1, Human recombinant renin (Homo sapiens, UniProt P00797); assay: Inhibition of human recombinant renin (buffer); format: biochemical; settings: 100 pM renin, 50 mM MOPS pH 7.4, 37° C., 3 hours
T1 construct: purchased Proteos
T1 sequence (P00797 67-406): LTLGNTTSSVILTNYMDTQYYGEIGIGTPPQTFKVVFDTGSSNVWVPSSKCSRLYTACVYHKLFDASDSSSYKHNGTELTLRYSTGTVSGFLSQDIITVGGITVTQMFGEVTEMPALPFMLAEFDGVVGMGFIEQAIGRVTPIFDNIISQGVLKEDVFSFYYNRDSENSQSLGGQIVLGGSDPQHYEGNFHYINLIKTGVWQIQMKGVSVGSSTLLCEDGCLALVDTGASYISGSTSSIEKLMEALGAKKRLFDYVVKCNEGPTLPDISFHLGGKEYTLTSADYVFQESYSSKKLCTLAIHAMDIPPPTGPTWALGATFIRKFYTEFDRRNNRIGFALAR
Procedure: Fluorescence is measured at times 0 and 3 hours with a SpectraMax Gemini EM reader set at an excitation wavelength of 328 nm and at an emission wavelength of 388 nm. Background fluorescence at t=0 is subtracted from the measurement at t=3 hours. Inhibitory activity of the compounds is expressed as IC50.

[1] = target: T2, recombinant renin in human plasma (Homo sapiens, UniProt P00797); assay: Inhibition of renin in human plasma; format: biochemical; settings: human EDTA plasma, 1 nM recombinant renin added, 37° C., 1 hour
T2 construct: purchased Proteos
T2 sequence (P00797 67-406): T1 sequence (P00797 67-406)
Procedure: Human EDTA-collected plasma is rapidly thawed in warm water and centrifuged at 2900 g for 15 minutes at 4° C. The supernatant is collected and recombinant renin (Proteos) is added at a final concentration of 1 nM. […] The plate is incubated at 37° C. for 1 hour. […] Background fluorescence at t=0 is subtracted from the measurement at t=1 hour. Inhibitory activity of the compounds is expressed as IC50.

[2] = read-out: Human Renin IC50 (buffer)
[3] = read-out: Human Renin IC50 (plasma)

Compound | IC50 (Human recombinant renin; [2]) [nM] | IC50 [1, 3] [nM] | IC50 (Human recombinant renin; Human Renin IC50 (buffer)) [nM] | IC50 ([1]; Human Renin IC50 (plasma)) [nM]
Cn1ccc([C@@H]2CCNC[C@H]2C(=O)N(Cc2c[nH]c3cccc(F)c23)C2CC2)cc1=O (relative stereo) [Example 75, trans-N-Cyclopropyl-N-[(4-fluoro-1H-indol-3-yl)methyl]-4-(1-methyl-2-oxo-1,2-dihydro-4-pyridinyl)-3-piperidinecarboxamide] | 12.7 | 8.4 |  | 
COCCCc1cc(CCCOC)c(Cl)c(CN(C(=O)[C@H]2CNCC[C@@H]2c2ccn(C)c(=O)c2)C2CC2)c1 (relative stereo) [Example 89, trans-N-[2-Chloro-3,5-bis(3-methoxypropyl)benzyl]-N-cyclopropyl-4-(1-methyl-2-oxo-1,2-dihydro-4-pyridinyl)-3-piperidinecarboxamide] | 0.2 | 0.5 |  | 
Cc1cc(Cc2ccccc2)cc(CN(C(=O)[C@@H]2CNCC[C@H]2c2ccn(C)c(=O)c2)C2CC2)c1 (relative stereo) [Example 104, trans-N-(3-Benzyl-5-methylbenzyl)-N-cyclopropyl-4-(1-methyl-2-oxo-1,2-dihydro-4-pyridinyl)-3-piperidinecarboxamide] | 7.5 | 21 |  | 
COCCCc1cc(CN(C(=O)[C@@H]2CNCC[C@H]2c2ccn(C)c(=O)c2)C2CC2)c2ccccc2c1 (relative stereo) [Example 18, trans-N-Cyclopropyl-4-(1-methyl-2-oxo-1,2-dihydro-4-pyridinyl)-N-({3-[3-(methyloxy)propyl]-1-naphthalenyl}methyl)-3-piperidinecarboxamide] | 0.4 | 1.8 |  | 
Cn1ccc(C2CCNC[C@@H]2C(=O)N(Cc2cc(CCC#N)cc(Cl)c2Cl)C2CC2)cc1=O (stereo in doubt) [Example 30, trans-N-Cyclopropyl-N-{[2,3-dichloro-5-(2-cyanoethyl)phenyl]methyl}-4-(1-methyl-2-oxo-1,2-dihydro-4-pyridinyl)-3-piperidinecarboxamide] | 8.4 | 17 |  | 
Cn1ccc([C@@H]2CCNC[C@H]2C(=O)N(Cc2cn(Cc3cccc(F)c3)c3cccc(Br)c23)C2CC2)cc1=O (relative stereo) [Example 73, trans-N-({4-Bromo-1-[(3-fluorophenyl)methyl]-1H-indol-3-yl}methyl)-N-cyclopropyl-4-(1-methyl-2-oxo-1,2-dihydro-4-pyridinyl)-3-piperidinecarboxamide] | < 0.06 | 0.5 |  | 
COCCc1ccc(Cl)c(CN(C(=O)[C@H]2CNCC[C@]2(OC)c2ccn(C)c(=O)c2)C2CC2)c1 (relative stereo) [Example 109] | 1.3 | 3.2 |  | 
COCCCc1ccc2c(c1)C(N(C(=O)[C@H]1CNCCC1c1ccn(C)c(=O)c1)C1CC1)CCC2 (single isomer, unassigned) [Example 100 Diastereomer A, trans-N-Cyclopropyl-N-[7-(3-methoxypropyl)-1,2,3,4-tetrahydro-1-naphthalenyl]-4-(1-methyl-2-oxo-1,2-dihydro-4-pyridinyl)-3-piperidinecarboxamide] | 0.3 | 1.2 |  | 
Cc1c(Br)cc(CN(C(=O)[C@@H]2CNCC[C@H]2c2ccn(C)c(=O)c2)C2CC2)cc1CCCOC(F)F (relative stereo) [Example 103, trans-N-{3-Bromo-5-[3-(difluoromethoxy)propyl]-4-methylbenzyl}-N-cyclopropyl-4-(1-methyl-2-oxo-1,2-dihydro-4-pyridinyl)-3-piperidinecarboxamide] | 0.3 | 1.4 |  | 
COCCCn1cc(CN(C(=O)[C@@H]2CNCC[C@H]2c2ccn(C)c(=O)c2)C2CC2)c2c(F)cccc21 (relative stereo) [Example 69, trans-N-Cyclopropyl-N-({4-fluoro-1-[3-(methyloxy)propyl]-1H-indol-3-yl}methyl)-4-(1-methyl-2-oxo-1,2-dihydro-4-pyridinyl)-3-piperidinecarboxamide] | 0.3 | 0.9 |  | 
COCCCc1ccc2c(c1)C(N(C(=O)[C@H]1CNCCC1c1ccn(C)c(=O)c1)C1CC1)CCC2 (single isomer, unassigned) [Example 100 Diastereomer B, trans-N-Cyclopropyl-N-[7-(3-methoxypropyl)-1,2,3,4-tetrahydro-1-naphthalenyl]-4-(1-methyl-2-oxo-1,2-dihydro-4-pyridinyl)-3-piperidinecarboxamide] | 3.6 | 16.2 |  | 
CCn1ccc([C@@H]2CCNC[C@H]2C(=O)N(Cc2cc(CCCOC)cc(OCCOC)c2)C2CC2)cc1=O (relative stereo) [Example 12, trans-N-Cyclopropyl-4-(1-ethyl-2-oxo-1,2-dihydro-4-pyridinyl)-N-({3-{[2-(methyloxy)ethyl]oxy}-5-[3-(methyloxy)propyl]phenyl}methyl)-3-piperidinecarboxamide] | 200 | 460 |  | 
COCCCc1cc(CN(C(=O)[C@H]2CNCC[C@@H]2c2ccn(C)c(=O)c2)C2CC2)cc(Br)c1C (relative stereo) [Example 85, trans-N-({3-Bromo-4-methyl-5-[3-(methyloxy)propyl]phenyl}methyl)-N-cyclopropyl-4-(1-methyl-2-oxo-1,2-dihydro-4-pyridinyl)-3-piperidinecarboxamide] | 0.9 | 1.3 |  | 
Cn1ccc([C@@H]2CCNC[C@H]2C(=O)N(Cc2cn(Cc3cccc(F)c3)c3cccc(F)c23)C2CC2)cc1=O (relative stereo) [Example 68, trans-N-Cyclopropyl-N-({4-fluoro-1-[(3-fluorophenyl)methyl]-1H-indol-3-yl]methyl}-4-(1-methyl-2-oxo-1,2-dihydro-4-pyridinyl)-3-piperidinecarboxamide] | 0.06 | 0.6 |  | 
COCCCc1cc(Cl)c(Cl)c(CN(C(=O)[C@@H]2CNCC[C@H]2c2ccn(C)c(=O)c2)C2CC2)c1 (relative stereo) [Example 5, trans-N-Cyclopropyl-N-({2,3-dichloro-5-[3-(methyloxy)propyl]phenyl}methyl)-4-(1-methyl-2-oxo-1,2-dihydro-4-pyridinyl)-3-piperidinecarboxamide] | 0.3 | 1.3 |  | 
COCCCc1cc(CN(C(=O)[C@@H]2CNCC[C@H]2c2ccn(C)c(=O)c2)C2CC2)c2ccccc2n1 (relative stereo) [Example 25, trans-N-Cyclopropyl-4-(1-methyl-2-oxo-1,2-dihydro-4-pyridinyl)-N-({2-[3-(methyloxy)propyl]-4-quinolinyl}methyl)-3-piperidinecarboxamide] | 1.4 | 3 |  | 
COCCCc1cc(CN(C(=O)[C@@H]2CNCC[C@H]2c2cc(=O)n(C)c(C)c2C)C2CC2)cc(OCCOC)c1 (relative stereo) [Example 13, trans-N-Cyclopropyl-N-({3-{[2-(methyloxy)ethyl]oxy}-5-[3-(methyloxy)propyl]phenyl}methyl)-4-(1,5,6-trimethyl-2-oxo-1,2-dihydro-4-pyridinyl)-3-piperidinecarboxamide] | 25 | 80 |  | 
COCCNc1cc(CN(C(=O)[C@@H]2CNCC[C@H]2c2ccn(C)c(=O)c2)C2CC2)c2ccccc2c1 (relative stereo) [Example 36, trans-N-Cyclopropyl-4-(1-methyl-2-oxo-1,2-dihydro-4-pyridinyl)-N-[(3-{[2-(methyloxy)ethyl]amino}-1-naphthalenyl)methyl]-3-piperidinecarboxamide] |  |  | 5.3 | 2.4
COCCCc1cc(CN(C(=O)[C@@H]2CNCC[C@H]2c2ccn(C)c(=O)c2)C2CC2)cc(-c2ccccc2)c1 (relative stereo) [Example 33, trans-N-Cyclopropyl-4-(1-methyl-2-oxo-1,2-dihydro-4-pyridinyl)-N-({5-[3-(methyloxy)propyl]-3-biphenylyl}methyl)-3-piperidinecarboxamide] | 15 | 81 |  | 
COCCCn1cc(CN(C(=O)[C@@H]2CNCC[C@H]2c2ccn(C)c(=O)c2)C2CC2)c(=O)n(CCCOC)c1=O (relative stereo) [Example 79, trans-N-({1,3-Bis[3-(methyloxy)propyl]-2,4-dioxo-1,2,3,4-tetrahydro-5-pyrimidinyl}methyl)-N-cyclopropyl-4-(1-methyl-2-oxo-1,2-dihydro-4-pyridinyl)-3-piperidinecarboxamide] | 58 | 75 |  | 
Cn1ccc([C@@H]2CCNC[C@H]2C(=O)N(Cc2cn(Cc3ccncc3)c3cccc(F)c23)C2CC2)cc1=O (relative stereo) [Example 77, trans-N-Cyclopropyl-N-{[4-fluoro-1-(4-pyridinylmethyl)-1H-indol-3-yl]methyl}-4-(1-methyl-2-oxo-1,2-dihydro-4-pyridinyl)-3-piperidinecarboxamide] | 0.2 | 0.5 |  | 
